Here are results for three compounds from patent publication US20200331950A1, “SGLTS INHIBITOR AND APPLICATION THEREOF” (SHANDONG DANHONG PHARMACEUTICAL CO., LTD., priority 2018, published 2020).

In one data set the test system is SD rats. Nature of the data set: Oral glucose tolerance test (OGTT) in rats, first time. The class given is in vivo. As to conditions: first study, male SD rats, 10 mg/kg single intragastric administration; for OGTT blood glucose level AUC0-2 hr: glucose 2 g/kg; for Urine glucose level / Urine volume: urine 0-24 h. As for the experimental part:
Experimental Example 3. Study on In Vivo Efficacy of Oral Glucose Tolerance Test (OGTT) in Rats: Study on the In Vivo Efficacy of Oral Glucose Tolerance Test (OGTT) in Rats for the First Time
The experimental animals were allowed to adapt to the environment in the animal room for one week after they arrived.
The animals fasted in the metabolic cage for 18 hours, then were given drugs or vehicle (2 ml/kg) according to the above table, and subsequently were immediately given 50% glucose solution (2 g/kg, 4 ml/kg).
2 hours after the administration of glucose solution, feed intake was restored. Blood samples were taken at 0 min, 15 min, 30 min, 45 min, 60 min and 120 min respectively, and urine samples were collected at 0-24 h to test blood glucose, urine glucose (mg/200 g) and urine volume respectively.
All values are represented as averages. Statistical analysis was performed using Graphpad Prism 6 one-way analysis of variance and Tukey's multiple comparison test. P value of less than 0.05 is considered statistically significant.

A short description of data set [1]: In vivo pharmacokinetics in rats. The conditions noted are these: male SD rats; for Oral DNAUC (AUCPO/Dose) / bioavailability: oral 2 mg/kg; for clearance / half-life / Vd / bioavailability / Cmax: rat, plasma; for clearance / half-life / Vd / Cmax: intravenous 1 mg/kg or oral 2 mg/kg; for clearance: read-out: Cl (clearance rate); for half-life: read-out: T1/2 (half-life) (converted); for Vd: read-out: Vdss (distribution volume); for bioavailability: intravenous 1 mg/kg, read-out: F % (oral bioavailability); for Cmax: single administration. From the text:
Study on the In Vivo Pharmacokinetics in Rats
The purpose of the experiment: Male SD rats were used as test animals and were given a single administration to determine the plasma concentration of the compound and evaluate the pharmacokinetic behavior.
Experimental method: Six healthy adult male SD rats were divided into 2 groups, with 3 rats in an intravenous injection group and 3 rats in an oral administration group. In the intravenous injection group, the test compound was mixed with an appropriate amount of vehicle (10% N-methyl pyrrolidone (NMP)/10% polyethylene glycol-15 hydroxystearate (available from solutol)/80% water), then vortexed and sonicated to prepare 0.2 mg/mL clear solution, which was filtered by microporous membrane. In the oral administration group, 10% N-methyl pyrrolidone (NMP)/10% polyethylene glycol-15 hydroxy stearate (available from solutol)/80% water was used as a vehicle and mixed with the test compound, then vortexed and sonicated to prepare 0.40 mg/mL clear solution. The rats were given intravenous administration at a dose of 1 mg/kg or oral administration at a dose of 2 mg/kg. Whole blood was collected at a certain period of time to prepare the plasma. The drug concentration of the plasma was analyzed by LC-MS/MS method, and the pharmacokinetic parameters were calculated using Phoenix WinNonlin software (Pharsight Company, USA).

Data set [2] relates to db/db mice. Nature of the data set: Random blood glucose in diabetic db/db mice. The conditions noted are these: mean±S.E.M. Format: in vivo. As for the experimental part: (§1) Experimental Example 4: Study on the In Vivo Pharmacodynamics in Diabetic Db/Db Mice
(§2) The animals were kept in an animal breeding room with strictly controlled environmental conditions after they arrived. The animal breeding room was maintained at a temperature of 20-24° C. and a humidity of 40-70%. The temperature and humidity in the feeding room were monitored in real time by a hygrothermograph, and the temperature and humidity were recorded twice daily (one in the morning and the other in the afternoon). The lighting of the animal feeding room was controlled by an on-off electronic timing system, with lights for 12 hours and dark for 12 hours daily (turned on at 7:00 a.m. and turned off at 19:00 p.m). The mice were raised in separate cages and were given free access to feed (reproductive feed 17053113 for rats and mice, available from Beijing Keao Xieli Feed Co., Ltd.) and water during the experiment.
(§3) During the experiment, the animals were administrated with the corresponding vehicles or drugs according to the group with an administration time of 16:00 and an administration period of 8 weeks.
(§4) The dose was 5 mg/kg from week 1 to week 4; and the dose was 10 mg/kg from week 5 to week 8.
(§5) Random and fasting blood glucose levels were measured once a week.
The random blood glucose level was measured at 10:00 a.m.
(§6) All of the data were entered into an Excel document and expressed in the form of mean±S.E.M. The differences between groups were compared using graphpad Prism 6 software and one-way analysis of variance (ANOVA). P value of less than 0.05 is considered a significant difference.

The subject of data set [3] is db/db mice. Description: Glycosylated hemoglobin (HbA1c) in diabetic db/db mice. Format: in vivo. The conditions noted are these: for HbA1c (%): fasted 6 hours; for Rate of Decline of HbA1c (%): vs. vehicle control group. The method, then: as §1, §3, §4
At weeks 4 and 8 of the experiment, the animals fasted for 6 hours, and blood samples were collected to measure glycosylated hemoglobin.
as §6

For data set [4], the system named is db/db mice. Description: Fasting blood glucose in diabetic db/db mice. Format: in vivo. As to conditions: fasted from 10:00, mean±S.E.M. The method, then:
as §1, §2, §3, §4, §5
Fasting blood glucose test: The mice fasted from 10:00 a.m., and blood glucose level was firstly measured at 16:00. Then the mice were administered with the drugs, and 2 hours later blood glucose level was measured again, and then feed intake was restored.
as §6

In data set [5] the test system is db/db mice. Nature of the data set: Oral glucose tolerance test (OGTT) at week 8 in diabetic db/db mice. The class given is in vivo. The conditions noted are these: 5 mg/kg weeks 1-4, 10 mg/kg weeks 5-8, once daily, fasted 6 hours, glucose 2 g/kg, mean±S.E.M. The method, then: as §1, §3, §4
At the end of the experiment (i.e. the last 3 days of administration), the animals fasted for 6 hours, then were given a single administration of glucose aqueous solution at a dose of 2 g/kg. The time of the glucose administration was recorded as 0 min. Blood glucose levels of the animals were detected at 0 min before the glucose administration, and 15 min, 30 min, 90 min and 120 min after the glucose administration, respectively. The glucose tolerance curve was drawn according to the data of blood glucose levels vs time, and the area under the curve (AUC) was calculated. The administration was given at 16:00.
as §6

Setting [6] is: Week 1, 5 mg/kg intragastric once daily.
Setting [7] is: Week 2, 5 mg/kg intragastric once daily.
Setting [8] is: Week 3, 5 mg/kg intragastric once daily.
Setting [9] is: Week 4, 5 mg/kg intragastric once daily.
Setting [10] is: Week 5, 10 mg/kg intragastric once daily (5 mg/kg weeks 1-4).
Setting [11] is: Week 6, 10 mg/kg intragastric once daily (5 mg/kg weeks 1-4).
[12] abbreviates: Week 7, 10 mg/kg intragastric once daily (5 mg/kg weeks 1-4).
The mark [13] stands for this setting: Week 8, 10 mg/kg intragastric once daily (5 mg/kg weeks 1-4).
Where [14] appears, read: Week 8, 5 mg/kg weeks 1-4, 10 mg/kg weeks 5-8, once daily.

Marks after values point to notes of the source that are not given here.

Regarding `CS[C@H]1OC(c2ccc(Cl)c(Cc3ccc(C4=CCC(F)(F)CC4)cc3)c2)[C@H](O)[C@@H](O)[C@@H]1O` (stereo partly drawn) [WXD001], in the data set with SD rats, the OGTT blood glucose level AUC0-2 hr came to 832 mmol/L/min; the Urine glucose level was 2181.4**** mg/200 g, BW; the Urine volume is 37.58**** mL/200 gBW. Also, in data set [1], the “Oral DNAUC (AUCPO/Dose)” value is 1823 nM · h/mpk, the clearance was 10.1 mL/min/kg, the half-life is 4.59 h and the Vd worked out at 3.86 L/kg. In data set [1], the bioavailability stood at 59% and the Cmax was determined as 410 nM.

In the case of `CS[C@H]1O[C@@H](c2ccc(C)c(Cc3ccc(C4=CCC(F)(F)CC4)cc3)c2)[C@H](O)[C@@H](O)[C@@H]1O` [WXD003], the Random blood glucose in the data set with db/db mice [2] (setting [6]) is listed as 14.3 ± 2.28; in the data set with db/db mice [2] (setting [7]), 15.7 ± 0.88; with db/db mice [2] (setting [8]), 13.6 ± 1.40; with db/db mice [2] (setting [9]), 13.3 ± 0.81; in the data set on db/db mice [2] (setting [10]), 14.1 ± 1.28; with db/db mice [2] (setting [11]), 10.1 ± 1.26. In addition, the Random blood glucose worked out at 12.5 ± 1.23 with db/db mice [2] (setting [12]) and 14.4 ± 1.77 in the data set with db/db mice [2] (setting [13]). The “HbA1c (%)” value is listed as 5.7*** % with db/db mice [3] (setting [9]) and 5.9**** % in the data set with db/db mice [3] (setting [14]). In addition, the entries for the “Rate of Decline of HbA1c (%)” value in the data set on db/db mice [3] (setting [9]) and in the data set with db/db mice [3] (setting [14]) were −32% and −39%, respectively. Besides, the Fasting blood glucose with db/db mice [4] (setting [6]) stood at 14.8 ± 2.34; with db/db mice [4] (setting [7]), 19.9 ± 1.32; in the data set with db/db mice [4] (setting [8]) it was 15.8 ± 1.48; in the data set with db/db mice [4] (setting [9]), 14.3 ± 1.29; in the data set with db/db mice [4] (setting [10]), 17.4 ± 1.72; with db/db mice [4] (setting [11]), 10.9 ± 1.42. Also, the Fasting blood glucose in the data set with db/db mice [4] (setting [12]) was determined as 11.7 ± 1.30; with db/db mice [4] (setting [13]) it was 13.0 ± 1.36. For the same compound, the OGTT blood glucose level AUC0-2 hr in the data set with db/db mice [5] came to 2810 ± 155 mmol/L/min; in the data set on SD rats it was 797 mmol/L/min. Besides, in the data set with SD rats, the Urine glucose level is given as 1636.4**** mg/200 g, BW. Also, the Urine volume with SD rats was 24.58 mL/200 gBW. Moreover, in data set [1], the “Oral DNAUC (AUCPO/Dose)” value came to 1013 nM · h/mpk. For the same compound, in data set [1], the clearance was found to be 14.5 mL/min/kg. The half-life in data set [1] was 2.56 h. For the same compound, in data set [1], the Vd worked out at 2.94 L/kg. In addition, the bioavailability in data set [1] amounted to 47.7%. The compound also displayed a Cmax in data set [1] of 391 nM.

In the case of `CCc1ccc([C@@H]2O[C@H](SC)[C@@H](O)[C@H](O)[C@H]2O)cc1Cc1ccc(C2=CCC(F)(F)CC2)cc1` [WXD010], the Random blood glucose with db/db mice [2] (setting [6]) amounted to 16.7 ± 1.00; in the data set on db/db mice [2] (setting [7]), 13.5 ± 2.46; with db/db mice [2] (setting [8]), 14.1 ± 0.97; in the data set with db/db mice [2] (setting [9]) it was 15.4 ± 1.34; in the data set with db/db mice [2] (setting [10]), 13.2 ± 1.09; in the data set with db/db mice [2] (setting [11]), 10.6 ± 1.48. Also, the Random blood glucose worked out at 9.8 ± 0.82 in the data set on db/db mice [2] (setting [12]) and 9.2 ± 0.68 in the data set on db/db mice [2] (setting [13]). Also, the “HbA1c (%)” value is on record as 5.8*** % in the data set on db/db mice [3] (setting [9]) and 5.1**** % with db/db mice [3] (setting [14]). Moreover, the “Rate of Decline of HbA1c (%)” value with db/db mice [3] (setting [9]) is listed as −31%; in the data set on db/db mice [3] (setting [14]) it was −47%. In addition, the Fasting blood glucose turned out to be 14.7 ± 2.50 with db/db mice [4] (setting [6]); 14.4 ± 1.47 with db/db mice [4] (setting [7]); 15.8 ± 1.40 in the data set on db/db mice [4] (setting [8]); 14.9 ± 1.24 in the data set with db/db mice [4] (setting [9]); 15.9 ± 0.79 with db/db mice [4] (setting [10]); 11.0 ± 1.67 in the data set on db/db mice [4] (setting [11]). The Fasting blood glucose with db/db mice [4] (setting [12]) is given as 9.6 ± 0.91; in the data set with db/db mice [4] (setting [13]) it was 8.1 ± 0.51. In the data set with db/db mice [5], this compound came in with an OGTT blood glucose level AUC0-2 hr of 2120 ± 99.2 mmol/L/min. Moreover, the “Oral DNAUC (AUCPO/Dose)” value in data set [1] is listed as 2320 nM · h/mpk. The clearance in data set [1] was determined as 8.06 mL/min/kg. Moreover, the half-life in data set [1] is 4.5 h. Further, the Vd in data set [1] worked out at 2.48 L/kg. In addition, the bioavailability in data set [1] came to 56.4%. For the same compound, the peak level in data set [1] (Cmax) was 356 nM.

The bioavailability is the share of a dose that reaches the circulation, judged against a reference dose that is usually intravenous. One may read the Cmax as the maximum level reached in the sampled fluid or tissue.
